Reference: patent US20020028224A1, “Cosmetic compositions containing substituted amide derivatives” (Unilever Home & Personal Care USA, Division of Conopco, Inc., priority 2000, published 2002)
Values joined by “and” are separate entries in the source; they are usually repeats but may differ in a detail not shown here. Equal entries are not always repeated. Where two headings read alike, the source gives them in different places.

Tested on: human sebocytes
Test: Sebum suppression: 14C-acetate label remaining in cultured human sebocytes
Format: cell-based
Details: for activity at 1 µM / activity at 10 µM / activity at 0.1 µM / activity at 50 µM / activity at 28 µM / activity at 280 µM: Homo sapiens; for activity at 1 µM / activity at 10 µM / activity at 0.1 µM / activity at 50 µM: read-out: % of Control; for sebum suppressive activity in the presence of a retinoid / combined with retinol: summary in words, combined with retinol versus compound alone
[1] = Experiment A, 1 μM test compound + 1 μM Retinol
[2] = Experiment A, 1 μM test compound + 10 μM Retinol
[3] = Experiment A, 1 μM test compound alone
[4] = Experiment A, 10 μM test compound + 1 μM Retinol
[5] = Experiment A, 10 μM test compound + 10 μM Retinol
[6] = Experiment A, 10 μM test compound alone
[7] = Experiment B, 0.1 μM test compound + 1 μM Retinol
[8] = Experiment B, 0.1 μM test compound + 10 μM Retinol
[9] = Experiment B, 0.1 μM test compound alone
[10] = Experiment B, 1 μM test compound + 1 μM Retinol
[11] = Experiment B, 1 μM test compound + 10 μM Retinol
[12] = Experiment B, 1 μM test compound alone
[13] = Experiment B, 10 μM test compound + 1 μM Retinol
[14] = Experiment B, 10 μM test compound + 10 μM Retinol
[15] = Experiment B, 10 μM test compound alone
[16] = Experiment A, 28 μM Phenol Red (positive control)
[17] = Experiment B, 280 μM Phenol Red (positive control)

| SMILES | activity at 1 µM [1] [%] | activity at 1 µM [2] [%] | activity at 1 µM [3] [%] | activity at 10 µM [4] [%] | activity at 10 µM [5] [%] | activity at 10 µM [6] [%] | activity at 0.1 µM [7] [%] | activity at 0.1 µM [8] [%] | activity at 0.1 µM [9] [%] | activity at 1 µM [10] [%] | activity at 1 µM [11] [%] | activity at 1 µM [12] [%] | activity at 10 µM [13] [%] | activity at 10 µM [14] [%] | activity at 10 µM [15] [%] | sebum suppressive activity in the presence of a retinoid / combined with retinol | further results |
| --- | --- | --- | --- | --- | --- | --- | --- | --- | --- | --- | --- | --- | --- | --- | --- | --- | --- |
| CC(CCC(=O)NC(=O)Nc1ccccc1Sc1ccccc1CO)C1CCC2=C3CCC4CC(O)CCC4(C)C3CC(O)C21C (centres unmarked) [Compound A] | 68.5 | 64.8 | 68.5 | 73.4 | 60.8 | 71 | 88.8 | 84.2 | 84.5 | 77.4 | 73.9 | 76.1 | 62.7 | 64.6 | 70.2 |  |  |
| CC(CCC(=O)N1CCN(c2ccccc2)CC1)C1CCC2=C3CCC4CC(O)CCC4(C)C3CC(O)C21C (centres unmarked) [Compound B] | 80 | 66.2 | 88.1 | 8.7 | 7.2 | 25.6 | 81.7 | 84.8 | 87.9 | 69.1 | 69.9 | 68 | 0.3 | 0.3 | 0.3 |  |  |
| Cc1cccc(O)c1NC(=O)OC1CC(C)CCC1C(C)C (centres unmarked) [Compound C] |  | 66.5 | 70.1 |  | 0.2 | 0.2 | 94 | 88.6 | 97.9 | 78.2 | 68.8 | 75.3 | 0.4 | 0.4 | 0.4 |  |  |
| O=C(Nc1ccc(O)cc1)Nc1cccc(C(F)(F)F)c1 [Compound E] | 75.1 | 46.4 | 66.4 | 32 | 2.3 | 50 |  |  |  | 67.2 | 54.2 | 97.3 | 49.8 | 2.1 | 66.4 | improved sebum suppressive activity |  |
| CCOC(=O)c1ccc(NC(=O)Nc2ccc(O)cc2)cc1 [Compound F] |  |  |  |  |  |  |  |  |  |  |  |  |  |  |  | improved sebum suppressive activity | % of Control [1]: 67.3%; % of Control [2]: 65.8%; % of Control [3]: 84.7%; % of Control [4]: 66.2%; % of Control [5]: 53.7%; % of Control [6]: 82.7% |
| Cc1cccc(N2CCN(C(=O)CC3C=CC(CC(=O)N4CCN(c5cccc(C)c5)C(C)C4)C3)CC2C)c1 (centres unmarked) [Compound G] |  |  |  |  |  |  |  |  |  |  |  |  |  |  |  | improved sebum suppressive activity | activity at 10 µM (96 Well Plate, 10 μM test compound + 1 μM Retinol): 70.3%; activity at 10 µM (96 Well Plate, 10 μM test compound alone): 102%; activity at 50 µM (96 Well Plate, 50 μM test compound + 1 μM Retinol): 3.3%; activity at 50 µM (96 Well Plate, 50 μM test compound alone): 25.5% |
| O=S1(=O)OC(c2ccc(O)cc2)(c2ccc(O)cc2)c2ccccc21 [Phenol Red, phenol red, reference compound] |  |  |  |  |  |  |  |  |  |  |  |  |  |  |  |  | % of Control [16]: 95.3%; % of Control [17]: 46.5% and 52.2% and 54.9% and 56.8%; activity at 28 µM [16]: 75.5%; activity at 280 µM (Experiment A, 280 μM Phenol Red (positive control)): 15.9%; activity at 28 µM (Experiment B, 28 μM Phenol Red (positive control)): 86.4%; activity at 280 µM [17]: 52.5%; activity at 280 µM (Table 7, 280 μM Phenol Red (positive control)): 13.2% |
| CC1=C(/C=C/C(C)=C/C=C/C(C)=C/CO)C(C)(C)CCC1 [Retinol, retinol, reference compound] |  |  |  |  |  |  |  |  |  |  |  |  |  |  |  |  | activity at 10 µM (Experiment A, 10 μM Retinol alone): 105%; activity at 1 µM (Experiment B, 1 μM Retinol alone): 98.1%; activity at 10 µM (Experiment B, 10 μM Retinol alone): 106%; activity at 1 µM (Table 7, 1 μM Retinol alone): 98.1%; activity at 10 µM (Table 7, 10 μM Retinol alone): 106% |
